Columns and labels:
FTLD-U mice = experiment: Motor function of FTLD-U mice treated with other autophagy inducers (FIG. 5); format: in vivo; settings: tamoxifen 80 mg/Kg s.c. once per day one week, carbamazepine 50 mg/Kg i.p. once per day two weeks, spermidine 50 mg/Kg i.p. once per day one week
Method: Other autophage inducers for administration to the FTLD-U mice include tamoxifen, carbamazepine, calpastatin, minoxidial, spermidine and trehalose. […] Carbamazepine can lower inositol and IP3 levels. Calpastatin is a calpain inhibitor. Minoxidial is a K^+ATP channel opener. Spermidine can decrease ROS and increases beclin 1. The effect of trehalose is unknown. Tamoxifen (80 mg/Kg) was administered via subcutaneous injection, once per day for one week. carbamazepine (50 mg/Kg) was administered i.p. once per day for two weeks. Spermidine (50 mg/Kg) was administered i.p. once per day for one week.

ALS mice (SOD1G93A) = settings: cited from earlier work

## NC(=O)N1c2ccccc2C=Cc2ccccc21 [carbamazepine]
FTLD-U mice
  motor function deficits: rescued the motor function deficits

## CO[C@H]1C[C@@H]2CC[C@@H](C)[C@@](O)(O2)C(=O)C(=O)N2CCCC[C@H]2C(=O)O[C@H]([C@H](C)C[C@@H]2CC[C@@H](O)[C@H](OC)C2)CC(=O)[C@H](C)/C=C(\C)[C@@H](O)[C@@H](OC)C(=O)[C@H](C)C[C@H](C)/C=C/C=C/C=C/1C [rapamycin]
ALS mice (SOD1G93A)
  mitochondria impairment: more server mitochondria impairment

## NCCCCNCCCN [spermidine]
FTLD-U mice
  motor function deficits: rescued the motor function deficits

## CC/C(=C(\c1ccccc1)c1ccc(OCCN(C)C)cc1)c1ccccc1 [tamoxifen]
FTLD-U mice
  motor function deficits: rescued the motor function deficits
